Assay results published in paper PMC5175178, “Development of an in-vivo active reversible butyrylcholinesterase inhibitor” (Scientific Reports, 2016).

Legend:
[1] = molecular target: T1, mAChE (Mus musculus, UniProt P21836); test: In-vitro inhibitory activity against mAChE, method of Ellman; type: biochemical, murine
T1 construct: donated by Florian Nachon (IBS, Grenoble)
T1 sequence (P21836 32-614): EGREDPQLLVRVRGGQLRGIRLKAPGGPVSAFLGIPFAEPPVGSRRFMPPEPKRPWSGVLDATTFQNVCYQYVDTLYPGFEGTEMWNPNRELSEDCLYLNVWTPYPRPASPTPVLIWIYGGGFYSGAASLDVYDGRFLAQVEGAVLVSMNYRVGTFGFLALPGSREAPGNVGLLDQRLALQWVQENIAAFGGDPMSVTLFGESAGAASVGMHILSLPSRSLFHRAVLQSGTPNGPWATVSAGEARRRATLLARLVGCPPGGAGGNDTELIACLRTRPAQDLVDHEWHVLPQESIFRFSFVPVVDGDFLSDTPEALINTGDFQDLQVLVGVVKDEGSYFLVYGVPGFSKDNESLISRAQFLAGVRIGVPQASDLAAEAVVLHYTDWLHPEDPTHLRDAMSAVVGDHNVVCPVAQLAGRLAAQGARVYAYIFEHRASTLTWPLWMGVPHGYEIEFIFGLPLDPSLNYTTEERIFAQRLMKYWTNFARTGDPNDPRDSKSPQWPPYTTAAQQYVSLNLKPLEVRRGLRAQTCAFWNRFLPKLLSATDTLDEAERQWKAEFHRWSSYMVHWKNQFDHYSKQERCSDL
Experimental: The inhibitory potencies of the compounds against the ChEs were determined using the method of Ellman[32].
The enzyme solutions were prepared by dilution of the concentrated stocks in phosphate-buffered solution (0.1 M, pH 8.0). […] The reactions were started by addition of the substrate, at room temperature. The final content of the organic solvent (DMSO) was always 1%. […] To determine the blank value (b), phosphate-buffered solution replaced the enzyme solution. The initial velocity (v0) was calculated from the slope of the linear trend obtained, with each measurement carried out in triplicate. […] The compounds were added to each well at a final concentration of 10 μM. […] The initial velocities in the presence of the test compounds (vi) were calculated. The inhibitory potencies are expressed as the residual activities (RA = (vi – b) / (vo – b)). […] The IC50 values were obtained by plotting the residual enzyme activities against the applied inhibitor concentrations, with the experimental data fitted to Equation (1):
where X is the logarithm of the inhibitor concentration, and Y is the residual activity. For the fitting procedure, the Gnuplot software and an in-house python script were used.

[2] = system: Aβ(1–42)-induced cytotoxicity in SH-SY5Y cells; test: Neuroprotection against Aβ(1–42)-induced cytotoxicity, PI flow cytometry; type: cell-based, human; settings: 10 μM, 5 μM Aβ(1–42), 48 h
Experimental: Neurotoxicity induced by Aβ species (mainly Aβ(1–42)) is a contributor to the pathogenesis of neurodegeneration in AD[41]. […]. […] […].
Supplementary Figure 8. […]. […].
[…]; Sigma, St. Louis, MO, USA). […] SH-SY5Y cells were seeded into a 24-well culture plate (1.2 ×10^5/well) and next day, treated as described above. After 48 h treatment, cells were washed with pre-warmed PBS and further stained with PI solution (30 µM) for 15 min at 37 °C. Cells were then analyzed for cytotoxicity by flow cytometry on FACS Calibur (BD Bioscience, San Jose, CA, USA). The percentage of PI positive cells (PI^pos) was evaluated using FlowJo software (Ashland, OR, USA) and results are presented as a relative fold increase of PI^pos corresponding vehicle treatment (DMSO control).

[3] = molecular target: T2, Aβ1–42 aggregation (Homo sapiens, UniProt P05067); test: Aβ1–42 aggregation inhibition, thioflavin-T fluorometric assay; type: biochemical
T2 construct: Recombinant human HFIP-pretreated Aβ1–42 peptide (Merck Millipore, Darmstadt, Germany); purchased Merck Millipore, Darmstadt, Germany
Experimental: Recombinant human HFIP-pretreated Aβ1–42 peptide (Merck Millipore, Darmstadt, Germany) was dissolved in DMSO to give 75 μM stock solution. […]. The ThT emission of the Aβ1–42 began to rise after 4 h, reached a plateau after 20 h, and remained almost unchanged for an additional 28 h of incubation. The fluorescence intensities at the plateau in the absence and presence of the test compound were averaged, and the average fluorescence of the corresponding wells at t= 0 h was subtracted. […]

[4] = molecular target: T2, Aβ1–42 aggregation; test: Aβ1–42 aggregation inhibition, dot-blot assay; type: biochemical; settings: 10 μM compound
Experimental: Recombinant human HFIP-pretreated Aβ1–42 peptide (Merck Millipore, Darmstadt, Germany) was dissolved in DMSO to give 100 μM stock solution. Prior to the incubations, the Aβ1–42 peptide stock solution was diluted in HEPES buffered solution (150 mM HEPES, pH 7.4, 150 mM NaCl) to give 10 μM Aβ1–42. […]; 10 μM final concentration), and added to the black-walled 96-well plates in quadruplicate, and diluted with HEPES buffered solution to a final volume of 100 μL. To determine the blank value (b), 1% DMSO in HEPES buffered solution replaced the Aβ1–42 peptide solution. The sealed 96-well plate was placed in an incubator at 37 °C with continuous shaking, for 24 h. Then 10 μL from each well were spotted on nitrocellulose membrane. The membrane was dried and blocked with 5% non-fat milk in TBST (50 mM Tris, pH 7.4, 150 mM NaCl, 0.1% Tween 20) at room temperature for 30 min, washed with TBST, and probed with the LOC anti-amyloid fibrils antibody (Millipore, 1:10,000, in 2% non-fat milk-TBST) or the OC anti-amyloid fibrils antibody (Millipore, 1:10,000, in 2% non-fat milk-TBST), for 1 h. […] The blots were developed with Pierce ECL Western Blotting Substrate (Thermo Scientific) for 2 min, detected with a Bio-Rad ChemiDoc MP Imaging System, and further analyzed with Image Lab software (Bio-Rad). Inhibition of the Aβ1–42 aggregation was quantified using equation: […]

[5] = system: scopolamine-induced memory impairment in mice; test: Passive avoidance task, scopolamine-induced memory impairment; type: in vivo, Albino Swiss (CD–1 Krf) mice
Experimental: The first behavioral test performed was the passive avoidance (PA) task, which allows the evaluation of the effects of a drug on fear-motivated contextual memory. […] In the passive avoidance task, better memory performance is determined according to a longer step-through latency in the retention trial (i.e., the testing phase) than in the acquisition trial (i.e., the conditioning phase). […] The mice had free access to food and water, and the ambient temperature and humidity of the room were kept constant throughout all of the tests. For the behavioral tasks, the mice were selected at random, and each group consisted of 8 to 10 mice dose^−1. The experiments were performed between 08:00 and 14:00. Immediately after these in-vivo assays, the animals were euthanized by cervical dislocation. […] All efforts were made to minimize the number of mice used and their suffering.
The effect of the test compounds on acquisition and retention in the passive avoidance task was conducted accordingly to a previously described method^30. For this purpose, the passive avoidance apparatus was used (Panlab Harvard Apparatus, Spain).
The testing phase was conducted 24 h after the acquisition phase. For the acquisition, each mouse was initially placed for 30 s in the light compartment (exploration period; guillotine gate closed). At the end of the exploration period the guillotine door between the light and the dark compartments was opened and the time elapsed before entering the black chamber was recorded. As soon as the mouse entered the dark compartment, the door automatically closed and an electrical shock (current intensity: 0.2 mA, duration: 2 s) was delivered through the grid floor.
For the retention trial (drug off), the mice were placed in the illuminated white compartment again, and the latency time between door opening and entry into the dark compartment was recorded for each mouse. […] Better memory performance was indicated by longer latency before entry into the black chamber in the test (retention) phase than in the conditioning (acquisition) phase.

[6] = system: scopolamine-induced memory impairment in mice; test: Two-day radial arm water maze task, scopolamine-induced memory impairment; type: in vivo, C57BL/6J mice
Experimental: In this task incorrect arm entries (i.e., errors) are counted. […] The mice had free access to food and water, and the ambient temperature and humidity of the room were kept constant throughout all of the tests. For the behavioral tasks, the mice were selected at random, and each group consisted of 8 to 10 mice dose^−1. The experiments were performed between 08:00 and 14:00. Immediately after these in-vivo assays, the animals were euthanized by cervical dislocation. […] All efforts were made to minimize the number of mice used and their suffering.
C57BL/6J mice were subjected to the radial arm water maze paradigm^34,35. The main part of the apparatus (Panlab Harvard Apparatus, Spain) consists of a 6-arm maze in a pool filled with water to approximately 10 cm from the top, to be high enough to cover the hidden platform by about 0.5 cm, but also low enough that the visible platform was not covered. The pool was regularly cleaned of any debris left by the mice. The temperature of the water was kept constant during testing (23 ±1 °C). The tester remained in the same position throughout the testing, thus providing an additional visual cue for the mice.
On day 1, 15 trials were run in five blocks of three. Each trial lasted up to 60 s. The start arm was varied for each trial, with the goal arm remaining constant for a given individual for both days^34,35. For the first 12 trials, the platform was alternately visible, then hidden, and then hidden for the last three trials. On day 2, the mice (without drug treatment on this day) were run in the same manner as on day 1, but the platform was hidden for all of the trials. As errors have been reported to be the most sensitive measure in this assay^34, the number of errors (i.e., incorrect arm entries made) was counted in a 60 s time-frame. Incorrect arm entries occurred when the mouse selected an arm that was not the goal arm. Entries into the goal arm were not counted as errors, even if the platform was not located. An entry was considered to occur when all four legs of the mice had entered the alley completely. […] If the platform was not located within 60 s, the mice were gently guided through the water by placing a hand behind the animal to direct its swimming direction toward the platform. […] After that, the mouse was gently removed from the platform and thoroughly dried using cellulose paper before placing it back into its home cage under a heat source (a heat lamp).
For the statistical analysis of the data obtained, to minimize the impact of individual trial variability, each mouse error for the finding of the platform for three consecutive trials were averaged, giving five data points (5 trial blocks): T1 (trials 1–3), T2 (trials 4–6), T3 (trials 7–9), T4 (trials 10–12) and T5 (trials 13–15), separately for each day of testing.

[7] = system: mice; test: Observation of acute cholinergic adverse effects; type: in vivo; settings: even at 100 mg kg^−1
[8] = in vitro; settings: human, plasma
Experimental: (§1) The plasma metabolic stability and hepatic clearance were estimated by the substrate depletion method.
The incubation was performed in a 37 °C water bath for 2 h. An aliquot of the incubation mixture was transferred to acetonitrile at 0, 0.5, 1, 1.5 and 2 h, respectively. Samples were then mixed and centrifuged. Supernatants were used for HPLC-MS/MS analysis using selected reaction monitoring, and peak areas were recorded for each analyte. The HPLC conditions consisted of a binary LC pump with autosampler, a C18 column (2 × 20 mm), and gradient elution. The area of precursor compound remaining after each time points relative to the amount remaining at time zero, expressed as percent, is calculated. Subsequently, the half-life (t1/2) was estimated from the slope of the initial linear range of the logarithmic curve of the compound remaining (%) versus time, assuming first order kinetics.

[9] = in vitro; settings: both, human, hepatocytes, pH 7.3
Experimental: as §1
(§2) Cryopreserved hepatocytes (mixed gender and pool of 10 or more) were thawed, washed, and resuspended in Krebs-Heinslet buffer (pH 7.3). […] The reaction was stopped by adding acetonitrile into the incubation mixture. Samples were then mixed, transferred completely to another 96-well plate, and centrifuged. Supernatants were used for HPLC-MS/MS analysis. As reference substances, four compounds were tested in each assay. […] In the HPLC-MS/MS analysis peak areas corresponding to the test compounds were recorded. Metabolic stability, expressed as percentage of the parent compound remaining, was calculated by comparing the peak area of the compound at the time point relative to that at time 0. The half-life (t1/2) was estimated from the slope of the initial linear range of the logarithmic curve of the compound remaining (%) versus time, assuming first order kinetics. The apparent intrinsic clearance (Clint in µL/min/million cells) was calculated from the half-life according to the following formula:

[10] = system: mice; test: Locomotor activity test; settings: 30 mg kg^–1 IP, 1 h before the assay
Text: Eight-week-old male Albino Swiss (CD–1 Krf) mice weighing from 18 g to 22 g were used in the passive avoidance task, and the locomotor activity and rotarod tests, and C57BL/6 J mice of the same age were used in the MWM and the RAWM tasks. […] The mice had free access to food and water, and the ambient temperature and humidity of the room were kept constant throughout all of the tests. For the behavioral tasks, the mice were selected at random, and each group consisted of 8 to 10 mice dose^−1. The experiments were performed between 08:00 and 14:00. Immediately after these in-vivo assays, the animals were euthanized by cervical dislocation. […] All efforts were made to minimize the number of mice used and their suffering.
Data are means ±SEM. The vehicle and the test compound were administered intraperitoneally, 1 h before the assay. Statistical analysis of the data was performed using repeated measures analysis of variance (ANOVA), followed by Bonferroni multiple comparisons.
The mouse locomotor activity (i.e., number of light-beam crossings) was measured during the next 30 min of the test^36.

[11] = Caco-2 monolayer bidirectional permeability assay; settings: human, Caco-2, Papp(A–B), apical-to-basolateral, 100 µM donor
Experimental: They were grown on Transwell® culture inserts with a polycarbonate membrane (diameter, 12 mm; pore size, 0.4 µm). 50,000 cells/filter membranes were used for seeding and the medium was changed every two days. At day 18, transepithelial electrical resistance (TEER) was measured for each filter with Caco-2 cell monolayers. […] The samples were acidified by dilution with the same volume of 0.01M HCl before fluorescence measurements.
Ringer buffer with 10 mM d-glucose or 10 mM mannitol on apical and basolateral side of the tissue, respectively, was used as an incubation saline. […] The stock solutions were added either to the apical or to the basolateral compartment to obtain bidirectional permeability measurements. Six samples were withdrawn in 20 min intervals. Each time 300 µl was taken from the 1500 µL basolateral acceptor compartment and 100 µL from the 500 µL apical acceptor compartment. These volumes were immediately replaced by the appropriate fresh incubation saline. […] All apparent permeability coefficients were calculated as described previously^24.

[12] = system: cryopreserved human hepatocytes; test: Metabolic stability in cryopreserved human hepatocytes; settings: 1 µM
Experimental: as §1, §2

[13] = system: SH-SY5Y cells; test: Cytotoxicity in SH-SY5Y cells, MTS cell viability assay; settings: 48 h
Experimental: Prior to cell treatments, complete medium was replaced with reduced-serum medium (i.e., with 2% fetal bovine serum).
After 24 h (a) or 48 h (b), the cell viability was evaluated using the MTS assay. The control group (DMSO) was considered as 100% cell viability. Data are means ±SD of at least three independent experiments, each carried out in triplicate (a) and quadruplicate (b).
The cells were treated as described above, and cell viability was assessed after 48 h using the CellTiter 96 Aqueous One Solution Cell Proliferation Assay (Promega, Madison, WI, USA), according to the manufacturer instructions. […] The data are presented as percentages of the control (DMSO).

[14] = system: cryopreserved human hepatocytes; test: Metabolite identification in cryopreserved human hepatocytes, LC-HRMS; settings: 2 h with human cryopreserved hepatocytes
Experimental: The plasma metabolic stability and hepatic clearance were estimated by the substrate depletion method. Qualitative aspect of metabolic degradation was performed by metabolite identification using LC-high resolution mass spectrometry (HRMS). […] Principal Phase I (oxidative) and Phase II (conjugative) metabolites have been detected and characterized following previously described preocedure^27. […] Samples were taken at time 0 and the end of the incubation (2 h), respectively. A control sample (no test compound added) was also prepared and incubated for the same period of time. After the reaction was stopped by addition of acetonitrile, the supernatants were subjected to HPLC-MS analysis. Separation of analytes was achieved using Acquity HSS T3 column (100 × 2.1 mm, 1.8 µ, Waters). The sample solutions-supernatants (5 µL) were injected and eluted at a flow rate of 0.5 mL min^–1, using a linear gradient of mobile phase A (0.1% formic acid in water) and mobile phase B (0.1% formic acid in MeCN). […] Retention times and the respective MS and MS/MS spectra of the species detected in the incubated sample and not in time-zero or blank sample were identified and recorded.

T2 sequence (P05067 672-713): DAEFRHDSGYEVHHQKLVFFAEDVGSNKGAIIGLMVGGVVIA

## COCCN(CC1CCCN(Cc2ccccc2)C1)S(=O)(=O)c1ccc2ccccc2c1 (racemic) [compound 2, (±)-N-((1-benzylpiperidin-3-yl)methyl)-N-(2-methoxyethyl)naphthalene-2-sulfonamide]
[1]; residual activity at 10 μM, %RA > 75% was considered as no inhibition, Table 1
  %RA at 10 µM ±SEM mAChE: 97% ± 2%
[1]; residual activity at 10 µM, %RA >75% was considered no inhibition, Supplementary Table 1
  %RA at 10 µM ±SEM mAChE: 97% ±2%
[2]
  neuroprotective effect on Aβ(1–42)-induced cell death: reversed Aβ(1–42)-induced cell death
[3]; 10 μM
  Aβ(1–42) aggregation inhibition: did not inhibit Aβ(1–42) aggregation
[3]; 10 μM compound, 1.5 μM Aβ1–42, read-out: Percent inhibition ±SEM (%) ThT
  inhibition at 10 µM: -4.89%
[4]; read-out: Percent inhibition ±SEM (%) Dot blot (LOC antibody)
  inhibition at 10 µM: 12.7 ± 8.9%
[4]; read-out: Percent inhibition ±SEM (%) Dot blot (OC antibody)
  inhibition at 10 µM: 2.7 ± 9.32%
[5]; 10 mg kg^−1 IP before scopolamine 1 mg kg^−1
  step-through latency, retention trial: 70 s
[5]; 20 mg kg^−1 IP before scopolamine 1 mg kg^−1
  step-through latency, retention trial: 58 s
[5]; 30 mg kg^−1 IP before scopolamine 1 mg kg^−1
  step-through latency, retention trial: 102 s
[6]; scopolamine + 30 mg kg^−1
  errors at the end of the acquisition phase (day 1): < 1 error
[6]; scopolamine + 30 mg kg^−1 on day 1
  errors in the last trial block of day two: < 1 error
[7]
  acute cholinergic adverse effects: no acute cholinergic adverse effects
[8]
  half-life at 1 µM: > 120 min
[9]
  half-life at 1 µM: 55.7 min
[10]
  locomotor activity of mice: transient reduction in the locomotor activity
[11]
  Papp A→B at 120 min, 100 µM: 30 ± 10.7 ×10⁻⁶ cm/s
[12]
  Half-Life t1/2 (min) 2nd: 51.7 min
  Half-Life t1/2 (min) Mean: 54 min
[12]; third replicate column
  Half-Life t1/2 (min) 2rd: 55.6 min
[13]
  LD50 SH-SY5Y cells: 31.40 µM
[14]
  possible metabolites identified with LC-HRMS: N-debenzylated, demethylated, and a demethylated + glucoronide products
